In brackets after ≈: the same amount, converted by molar mass. Bridge positions count the residues as written; N and C are the ends. Peptide text beside a SMILES is read from it.
Experiments:
[1] = system: BEAS-2B (normal airway epithelial cells); test: Cytotoxicity, resazurin cell viability; assay type: cell-based, human; details: 48 h
Protocol: (§1) The toxicity of HG2 and HG4 was tested by a well-known method[60] using the following cell types: BEAS-2B (normal airway epithelial cells, ATCC CRL-9609), IMR-90 (normal fibroblasts, ATCC CCL-186) and HepG2 (liver cell line, ATCC HB-8065). BEAS-2B, IMR-90 and HepG2 cells were cultured in Dulbecco’s modified essential medium (DMEM) supplemented with 10% fetal calf serum (FCS), 1% L-glutamine and 1% antibiotics (all from Invitrogen). Cells were routinely grown onto 25 cm^2 flasks maintained in a 5% CO2 incubator at 37 °C. Briefly, cells grown on 25 cm^2 flasks were detached using trypsin-EDTA solution (Thermofisher) and seeded into 96-well cell culture plates (Greiner Bio-one) at ~10^4 cells per well (counted using Mallasez’s chamber). The cells were grown at 37 °C in a 5% CO2 incubator until they reached confluence (~48–72 h of seeding). Wells were then aspirated and increasing concentrations of HG2 or HG4 were added to the cells and incubated for a further 48 h at 37 °C in a 5% CO2 incubator. The wells were then emptied, and cell viability was evaluated using a resazurin based in vitro toxicity assay kit (Sigma-Aldrich) following the manufacturer’s instructions. Briefly, the resazurin stock solution was diluted at 1:100 in sterile PBS containing calcium and magnesium (PBS^++, pH 7.4) and emptied wells were filled with 100 µl of the diluted resazurin solution. After 4 h incubation at 37 °C with the peptide-treated cells, fluorescence intensity was measured using a microplate reader (excitation wavelength of 530 nm/emission wavelength of 590 nm). The fluorescence values were normalised by the controls and expressed as the percentage of cell viability. The IC50 values of HG2 or HG4 on cell viability (i.e. the concentration of peptides causing a reduction of 50% of the cell viability) were calculated using GraphPad® Prism 7 software.

HepG2 (liver cell line) = test: Cytotoxicity, resazurin cell viability; assay type: cell-based, human; details: 48 h
Protocol: as §1

[2] = system: IMR-90 (normal fibroblasts); test: Cytotoxicity, resazurin cell viability; assay type: cell-based, human; details: 48 h
Protocol: as §1

[3] = system: LPS-driven NF-kB activation, eLUCidate Raw 264.7 NF-kB reporter cell line; test: Anti-inflammatory activity, NF-kB luciferase reporter; assay type: cell-based, murine; details: 10 ng/ml LPS from E. coli, 6 h
Protocol: (§2) The inhibitory activity of HG2, HG4 and comparator compounds against LPS and LTA was assessed using eLUCidate™ Raw 264.7 NF-kB reporter cell line (AMSBIO) as previously described. The eLUCidate NF-kB reporter cell line is a stably transfected Raw 264.7 cell line which expresses the Renilla luciferase reporter gene under the transcriptional control of the NF-kB response element, a key transcription factor involved in immune and inflammatory responses. This reporter cell line has been used to measure the induction of various toll-like receptors (TLR) by ligands, including LPS and LTA, therefore providing an effective way to evaluate inhibitors of their activations. Briefly, cells were grown and maintained following the manufacturer’s instructions in Dulbecco’s modified essential medium (DMEM) supplemented with 10% fetal calf serum (FCS), 1% L-glutamine, 1% antibiotics (Invitrogen) and containing 3 µg/ml of puromycin (Sigma-Aldrich, UK). To test the inhibitory activity of HG2 and HG4 on LPS or LTA-driven NF-kB activation, eLUCidate™ Raw 264.7 cells grown on 75 cm^2 flasks were detached using trypsin-EDTA solution (Thermofisher, UK) and seeded into 96-well cell culture plates (Greiner Bio-one, UK) at ~25,000 cells per well (counted using Mallasez’s chamber). The next day, wells were emptied, and cells were exposed to optimal concentrations of LPS or LTA determined from preliminary experiments, (i.e. 10 ng/ml of LPS from E. coli or 10 µg/ml of LTA from S. aureus (Invivogen, UK)) in the presence of increasing concentrations of HG2 or HG4 (from 0 to 500 µg/ml, serial 1:2 dilutions). Pyrrolidine dithiocarbamate (PDTC, 100 µM) and polymyxin B (PMB, 100 µM) (Sigma-Aldrich, UK) were used as positive controls based on their well-known activity as anti-inflammatory molecules and blockers/neutralisers of LPS and LTA, respectively. Importantly, all steps were performed using non-pyrogenic plastics and RNase/DNase molecular biology tips to limit the risk of the presence of a trace of LPS/LTA. After 6 h incubation at 37 °C and 5% CO2, wells were emptied, and the cells were treated with 70 µl of ice-cold PBS containing 1% Triton X-100. After 10 min incubation on ice under orbital shaking at 200 rpm, 50 µL of cell lysates were collected and transferred into white 96-well luminescence plates (Dominique Dutscher) already containing 100 µL of Renilla luciferase substrate (Yelen, France). Luminescence signals of the wells were immediately measured using a microplate reader (Biotek Synergy Mx, UK). The luminescence values were expressed as a percentage of control inflammation corresponding to values obtained after treatment with LPS or LTA in the absence of an inhibitor. The IC50 values of PDTC, PMB, HG2 or HG4 on LPS or LTA-mediated inflammation (i.e. the concentration of molecule causing a reduction of 50% of the luciferase’s induction caused by LPS or LTA) were calculated using GraphPad® Prism 7 software.

[4] = system: LTA-driven NF-kB activation, eLUCidate Raw 264.7 NF-kB reporter cell line; test: as above; assay type: cell-based, murine; details: 10 µg/ml LTA from S. aureus, 6 h
Protocol: as §2

[5] = system: MRSA USA300 infection in G. mellonella; test: In vivo efficacy, G. mellonella MRSA USA300 infection model; set-up: species or system Galleria mellonella; details: MRSA USA300 LD; for survival rate higher than the control group: peptides at 1x MIC; for increase in survival versus untreated control group / survival rate: peptides at 3x MIC
Protocol: All procedures of larvae rearing, injection and G. mellonella killing assays were conducted using validated methods. In each assay, ten larvae weighing between 280–300 mg each were randomly selected. Larvae with the previous melanisation of the cuticle were excluded from the experiments. All experiments were designed in at least four experimental and biological replicates.
To determine the LD50 and LD of S. aureus MRSA USA300 in G. mellonella, an inoculum of 10 µl of MRSA USA300 suspension in PBS 1X (10^3 to 10^6 CFU/larvae) was injected into the larvae haemocoel using insulin syringes (Becton Dickinson, USA). Larvae inoculated with PBS and larvae not inoculated were used as negative controls.
The efficacy of the peptides HG2 and HG4 to control MRSA USA300 infection in vivo, was evaluated following the protocol by ref. [43]. The groups of G. mellonella larvae were infected with the predetermined lethal dose of MRSA USA300. After 30 min of the larvae injection with the bacteria, the peptides were injected at 1x MIC and 3x MIC concentrations respectively. Larvae injected with PBS solution, and HG2 or HG4 peptide solution (1x MIC or 3x MIC) alone were used as negative controls. Injected larvae were maintained at 37 °C in the dark and their survival was monitored and analyzed as above.

Row | Structure (SMILES) | IC50 (cell viability) [1] [µg/mL] | IC50 (cell viability) (HepG2 (liver cell line)) [µg/mL] | IC50 (cell viability) [2] [µg/mL] | IC50, LPS-mediated inflammation [3] [µg/mL] | IC50, LTA-mediated inflammation [4] [µg/mL] | survival rate higher than the control group [5] | increase in survival versus untreated control group [5] [fold] | survival rate [5] [%]
1 | CC[C@H](C)[C@H](NC(=O)[C@H](CC(C)C)NC(=O)[C@H](CC(C)C)NC(=O)[C@H](CC(C)C)NC(=O)[C@H](CCCCN)NC(=O)[C@H](CCCCN)NC(=O)[C@@H](N)CCSC)C(=O)N[C@@H](CC(C)C)C(=O)N[C@@H](Cc1ccccc1)C(=O)N[C@H]1CSSC[C@@H](C(=O)N[C@@H](CCCCN)C(=O)N[C@@H](CCCCN)C(=O)N[C@@H](C)C(=O)N2CCC[C@H]2C(N)=O)NC(=O)CNC(=O)[C@H](C)NC(=O)[C@H](CC(C)C)NC(=O)[C@H](C)NC(=O)[C@H](CC(C)C)NC(=O)[C@H](C)NC(=O)[C@H](CC(C)C)NC1=O [HG2] (H-MKKLLLILFCLALALAGCKKAP-NH2; disulfide 10-18; N-terminus assumed) | 120 ± 25 (≈ 50.9 µM) | 359 ± 76 (≈ 152 µM) | 96 ± 21 (≈ 40.7 µM) | 73.99 ± 3.40 | 91.49 ± 6.03 | ~ 20% | 4.6 | 78
2 | CC[C@H](C)[C@H](NC(=O)[C@H](CC(C)C)NC(=O)[C@H](CC(C)C)NC(=O)[C@H](C)NC(=O)CNC(=O)CNC(=O)[C@@H](NC(=O)[C@@H](NC(=O)[C@H](CC(C)C)NC(=O)[C@H](C)NC(=O)[C@H](CC(C)C)NC(=O)CNC(=O)[C@H](CC(C)C)NC(=O)[C@@H](N)C(C)C)[C@@H](C)CC)C(C)C)C(=O)N[C@@H](CCCCN)C(=O)N[C@@H](CCCCN)C(=O)N[C@@H](CCCCN)C(=O)N[C@@H](CCC(N)=O)C(=O)N[C@@H](C)C(=O)N[C@@H](CCCCN)C(=O)N[C@@H](CO)C(N)=O [HG4] (H-VLGLALIVGGALLIKKKQAKS-NH2; N-terminus and C-terminus assumed) | > 1000 | > 1000 | 294 ± 42 (≈ 139 µM) | 113.80 ± 5.00 | 26.45 ± 3.11 | ~ 20% | 4.4 | 75

Source: PMC9283466, “In silico identification of two peptides with antibacterial activity against multidrug-resistant Staphylococcus aureus” (NPJ Biofilms and Microbiomes, 2022)
